Counter-ions that a name gives are not always drawn.
Columns and labels:
YAP/TAZ [1] = experiment: YAP/TAZ nuclear localization in IMR-90 and other fibroblasts / mesenchymal cells (immunofluorescence); assay type: cell-based, human; conditions: for effect of D1 antagonist on DHX's inhibition of YAP/TAZ nuclear localization: IMR-90 lung fibroblasts
Method: Selective agonists of dopamine receptor D1 with varying efficacy inhibit YAP/TAZ nuclear localization; this effect can be overcome by treatment with a DRD1 receptor antagonist (SCH 39166, 3 μM), (Dihydrexidine, 10 μM). IMR-90 cells treated 2 hours prior to fixation. N=4 (****p<0.0001 vs. 0.10% DMSO vehicle control). Scale bar represents 100 μm.
In each case DHX treatment (10 μM) can reverse this effect on YAP/TAZ. IMR-90 cells plated densely onto plastic cell culture plates for 24 hours in media containing 0.1% FBS, treated for 2 hours prior to fixation. N=4 (****p<0.0001 vs. 0.1% DMSO vehicle control), (++++p<0.0001 vs. the respective stimulated agonist ET-1, LPA, or 5-HT). Scale bar represents 100 μm.
Mesenchymal cells derived from lung (IMR-90 and IPF-FBs) hepatic stellate cells (HSC), human adult cardiac fibroblasts, (HACF) and human dermal fibroblasts (HDF) were plated densely (Confluent) or sparsely (Control and all remaining conditions) onto plastic cell culture plates for 24 hours in media containing 0.10% FBS, treated for 2 hours with Rho kinase inhibitor Y27632, adenylate cyclase activator forskolin and DHX. N=4, Cells that were positive for nuclear YAP/TAZ were quantified by automated image analysis.
(§1) Immunofluorescence Microscopy: Cells were plated into 96 well plates (Corning 3603) in their specific growth media and allowed to attach (8 hours). Media was then exchanged for the indicated conditions for each experiment. Cells were fixed in 3.7% formalin (Sigma-Aldrich), permeabilized in 0.25% Triton X-100 (Sigma-Aldrich) and then blocked with 1% BSA for 1 h. Cells or tissue sections were incubated overnight with mouse monoclonal antibody against αSMA (Sigma-Aldrich F3777), and/or a rabbit monoclonal antibody against YAP/TAZ (Cell Signaling D24E4) diluted 1:200 in PBS with 1% BSA. Cells were then washed and exposed to flourescence-conjugated secondary antibodies (Invitrogen) diluted 1:1000 and DAPI (Thermo Fisher Scientific). Images were taken with a Cytation5 (BioTek) microscope. For scoring αSMA positive cells (FIG. 12), an observer blinded to the treatment conditions counted αSMA-positive cells using a visual threshold for bright fibrous staining; a minimum of 200 cells was counted for each condition. YAP/TAZ localization was quantified (FIGS. 6-10, 24-26, and 29-30) using Gen5 (Biotek) software. Images were taken at 4× magnification of both DAPI and YAP/TAZ staining. […] Quantification of double positive (YAP/TAZ and αSMA) cells from lung tissue sections (FIG. 17-21) was performed similarly; however separate thresholds were established for both YAP/TAZ and αSMA. A minimum of 4000 cells was quantified for each mouse.

D1 receptor = conditions: cited from earlier work
CTGF, COL1A1, ACTA2, FN1 = experiment: Profibrotic / matrix remodeling gene expression by qPCR in fibroblasts; assay type: cell-based, human; conditions: for profibrotic gene expression / effect of D1 antagonist on DHX's inhibition of YAP/TAZ target genes: IMR-90 lung fibroblasts; for profibrotic gene expression: 24 hours
Method: Genes which encode Connective tissue growth factor (CTGF), Collagen I (COL1A1), αSMA (ACTA2), and Fibronectin (FN1) are reduced by 24 hour treatment with DHX (10 μM), +/−SCH 39166 (3 μM). N=3 (****p<0.0001, ***p<0.001, *p<0.05 vs. 0.1% DMSO vehicle control)
IPF patient-derived fibroblasts cultured in media containing 0.1% FBS were stimulated for 24 hours with 2 ng/mL TGFβ and 10 μM DHX prior to RNA isolation. Genes which encode for ECM crosslinking: transglutaminase 2 (TGM2), lysyl oxidase and lysyl oxidase-like enzymes (LOX and LOXL1-4), ECM degradation: uPA (PLAU), tPa (PLAT), cathepsin K (CTSK), and matrix metalloprotease-14 (MMP14) and ECM protease inhibitors: metalloprotease inhibitor 3 (TIMP3), and plasminogen activator inhibitor 1 (SERPINE1) were measured. N=3. (****p<0.0001, ***p<0.001, **p<0.01, *p<0.05 vs. 0.1% DMSO vehicle control non-TGFβ treated), (++++p<0.0001, ++p<0.01, +p<0.05 vs. 0.10% DMSO vehicle control TGFβ treated).
For all other in vitro experiments, cells were treated as indicated prior to RNA isolation using RNeasy Plus Mini Kit (Qiagen) according to manufacturer's instructions. Isolated RNA (250 ng) was then used to synthesize cDNA using SuperScript VILO (Invitrogen). Quantitative PCR was performed using FastStart Essential DNA Green Master (Roche) and analyzed using a LightCycler 96 (Roche). Data are expressed as a fold change by ΔΔCt relative to GAPDH. For in vivo experiments, tissue was immediately frozen, and stored at −80° C. RNA isolation, cDNA synthesis, and qPCR analysis were performed as above.

YAP/TAZ [2] = experiment: YAP/TAZ nuclear localization in adult lung fibroblasts, dose response (Cytation 5); assay type: cell-based; conditions: Homo sapiens, Fibroblast, 2 h, adult lung fibroblasts sparsely plated, treated 2 hours; read-out: IC50, inhibition of YAP/TAZ nuclear localization
Method: Adult lung fibroblasts (N=2) sparsely plated into 96-well plates. Treated for 2 hours with compounds prior to fixing and immunostaining for YAP/TAZ.
as §1

cAMP = cAMP assay (cAMP-Glo) in fibroblasts; assay type: cell-based, human; conditions: IMR-90 lung fibroblasts
Method: FIG. 9 contains a bar graph showing cAMP measured in IPF patient-derived fibroblasts treated for 20 minutes with DHX (10 μM)+/−SCH 39166 (3 μM). N=3 (**p<0.01 vs. 0.1% DMSO vehicle control).
N=3, IMR-90 lung fibroblasts.
cAMPAssay: IPF patient derived fibroblasts were plated in EMEM containing 10% FBS overnight. […] 20 minutes prior to cell lysis media was removed and cells were treated with “induction buffer” containing nonselective phosphodiesterase inhibitors and the indicated concentration of compound(s). Luminescence was measured on a Flexstation 3 (Molecular Devices) plate reader.

[3] = system: IPF patient derived fibroblasts; experiment: Traction force microscopy of IPF patient-derived fibroblasts; assay type: cell-based, human; conditions: IPF fibroblasts on 6.4 kPa matrices
Method: Traction Force Microscopy: Traction analysis was conducted as previously described. […] IPF patient derived fibroblasts were plated on the gels overnight and treated as indicated before traction force measurements. Images of gel surface-conjugated fluorescent beads were acquired for each cell before and after trypsinization using a Nikon ECLIPSE Ti microscope at ×10 magnification. Traction forces were estimated by measuring bead displacement fields and computing corresponding traction fields using TractionsForAll (freely distributed program that calculates 2-D tractions exerted by an adherent cell on its substrate).

YAP/TAZ [4] = experiment: YAP/TAZ nuclear localization in IPF patient-derived lung fibroblasts treated with dopaminergic agonists; assay type: cell-based, human; conditions: for Nuclear localization (% of total cells): 10 μM, 2 hours
Method: IPF patient-derived lung fibroblasts cells treated 2 hours prior to fixation with diverse dopaminergic agonists (10 μM). N=4 different patient samples. % nuclear localization of YAP/TAZ was determined using automated imaging software. Scale bar represents 100 μm.
as §1, with “Media” for “Immunofluorescence Microscopy: Cells were plated into 96 well plates (Corning 3603) in their specific growth media and allowed to attach (8 hours). Media”, “Cells were fixed in 3.7% formalin (Sigma-Aldrich), permeabilized in 0.25% Triton X-100 (Sigma-Aldrich) and then blocked with 1% BSA for 1 h.” left out

αSMA [5] = experiment: TGFβ-induced αSMA+ stress fiber formation in fibroblasts; assay type: cell-based, human; conditions: IPF-patient derived fibroblasts, TGFβ 48 hours, then dopamine 1 μM + TGFβ 24 hours
Method: as §1, with “Media” for “Immunofluorescence Microscopy: Cells were plated into 96 well plates (Corning 3603) in their specific growth media and allowed to attach (8 hours). Media”

αSMA [6] = experiment: αSMA intensity (fibroblast activation) in IPF patient-derived lung fibroblasts + TGFβ, dopaminergic agonist library; assay type: cell-based, human; conditions: 1 μM + TGFβ, 72 hours
Method: as §1, with “Media” for “Immunofluorescence Microscopy: Cells were plated into 96 well plates (Corning 3603) in their specific growth media and allowed to attach (8 hours). Media”, “Cells were fixed in 3.7% formalin (Sigma-Aldrich), permeabilized in 0.25% Triton X-100 (Sigma-Aldrich) and then blocked with 1% BSA for 1 h.” left out

Oc1cc2c(c(Cl)c1O)CCNCC2c1ccccc1 (stereo not shown) [SKF-81297]
YAP/TAZ nuclear localization (YAP/TAZ [1]; fibroblasts / mesenchymal cells on plastic, 2 hours): reduced nuclear localization of YAP/TAZ

Oc1ccc2c(c1O)Oc1cccc3c1C2CNC3 (stereo not shown) [dinoxyline]
efficacy at elevating cAMP (D1 receptor) (D1 receptor): full magnitude cAMP response

NCC1OC(C2CCCOC2)Cc2c1ccc(O)c2O (stereo not shown) [CTC-1]
profibrotic gene expression (CTGF, COL1A1, ACTA2, FN1): inhibition of profibrotic gene expression
IC50 (YAP/TAZ [2]): 285 nM

CN1CCc2ccccc2Cc2[nH]c3ccccc3c2CC1 [LE-300]
effect of D1 antagonist on DHX's elevation of cAMP (cAMP): block DHX's elevation of cAMP
effect of D1 antagonist on DHX's inhibition of YAP/TAZ nuclear localization (YAP/TAZ [1]): block DHX's inhibition of YAP/TAZ nuclear localization
effect of D1 antagonist on DHX's inhibition of YAP/TAZ target genes (CTGF, COL1A1, ACTA2, FN1): block DHX's inhibition of YAP/TAZ target genes

CC(C)(CO)C1Cc2c(ccc(O)c2O)C(CN)O1 (stereo not shown) [CTC-2]
profibrotic gene expression (CTGF, COL1A1, ACTA2, FN1): inhibition of profibrotic gene expression
IC50 (YAP/TAZ [2]): 490 nM

Oc1ccc2c(c1O)Cc1cccc3c1[C@H]2CNC3 [dinapsoline]
efficacy at elevating cAMP (D1 receptor) (D1 receptor): full magnitude cAMP response

CCCCC[C@H](O)/C=C/[C@H]1[C@H](O)CC(=O)[C@@H]1C/C=C\CCCC(=O)O [PGE2, prostaglandin E2]
potency of inhibition of YAP/TAZ nuclear localization, normal vs IPF lung fibroblasts (YAP/TAZ [1]; normal lung fibroblasts vs those from a patient with IPF): reduced potency

NCCc1ccc(O)c(O)c1 [Dopamine•HCl, Dopamine]
contractile forces (traction force microscopy) [3]: attenuates IPF fibroblast contractility
Nuclear localization (% of total cells) (YAP/TAZ [4]; IPF-1 patient fibroblasts): 39.85 % of total cells
Nuclear localization (% of total cells) (YAP/TAZ [4]; IPF-2 patient fibroblasts): 59.29 % of total cells
Nuclear localization (% of total cells) (YAP/TAZ [4]; IPF-3 patient fibroblasts): 49.67 % of total cells
Nuclear localization (% of total cells) (YAP/TAZ [4]; IPF-4 patient fibroblasts): 49.51 % of total cells
YAP/TAZ nuclear localization (YAP/TAZ [4]; low density IPF-patient derived fibroblasts on tissue culture plastic): inhibits YAP/TAZ nuclear localization
αSMA+ stress fiber formation (αSMA [5]): reverses αSMA+ stress fiber formation

Cl.NC[C@@H]1O[C@H](c2ccccc2)Cc2c1ccc(O)c2O [A 68930•HCl, A 68930]
efficacy at elevating cAMP (D1 receptor) (D1 receptor): lacks full efficacy to elevate cAMP
profibrotic gene expression in human dermal fibroblasts (CTGF, COL1A1, ACTA2, FN1; human dermal fibroblasts, 24 hours +/− 2 ng/mL TGFβ): blocks profibrotic gene expression
Nuclear localization (% of total cells) (YAP/TAZ [4]; IPF-1 patient fibroblasts): 33.13 % of total cells
Nuclear localization (% of total cells) (YAP/TAZ [4]; IPF-2 patient fibroblasts): 30.59 % of total cells
Nuclear localization (% of total cells) (YAP/TAZ [4]; IPF-3 patient fibroblasts): 26.82 % of total cells
Nuclear localization (% of total cells) (YAP/TAZ [4]; IPF-4 patient fibroblasts): 10.26 % of total cells
αSMA intensity (% of DMSO control) (αSMA [6]; IPF-1 patient fibroblasts): 12.4 % of DMSO control
αSMA intensity (% of DMSO control) (αSMA [6]; IPF-2 patient fibroblasts): 8.111 % of DMSO control
αSMA intensity (% of DMSO control) (αSMA [6]; IPF-3 patient fibroblasts): 3.245 % of DMSO control
αSMA intensity (% of DMSO control) (αSMA [6]; IPF-4 patient fibroblasts): 7.35 % of DMSO control

CN1CCc2cc(Cl)c(O)cc2[C@H]2c3ccccc3CC[C@@H]21 [SCH-39166]
effect of D1 antagonist on DHX's elevation of cAMP (cAMP): block DHX's elevation of cAMP
effect of D1 antagonist on DHX's inhibition of YAP/TAZ nuclear localization (YAP/TAZ [1]): block DHX's inhibition of YAP/TAZ nuclear localization
effect of D1 antagonist on DHX's inhibition of YAP/TAZ target genes (CTGF, COL1A1, ACTA2, FN1): block DHX's inhibition of YAP/TAZ target genes

From patent US12264163B2, “Compounds and methods for treating fibrotic pathologies” (Mayo Foundation for Medical Education and Research, priority 2019, dated 2025)
